Source: patent US20160046618A1, “Cyclopropyl Fused Thiazin-2-Amine Compounds as Beta-Secretase Inhibitors and Methods of Use” (AMGEN INC., priority 2014, published 2016)

Tests used:
Aβ 40 in rat CSF = test: In vivo inhibition of beta-secretase: Aβ40 reduction in rat CSF; details: 10 mpk, after 4 h
Summary of the method: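 Male Sprague Dawley rats (200 g) dosed orally in 2% HPMC, 1% Tween80, pH 2.2, at 3, 10 or 30 mg/kg; CSF and brain taken 4 h later. Brain homogenate centrifuged at 355,000 g; Aβ40 measured by ECL sandwich ELISA (4G8 capture, Abeta40 C-terminal Fab detection), as % reduction versus vehicle controls.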

Recombinant Cat D = Recombinant Cat D (Homo sapiens (Human), UniProt P07339); test: In vitro enzymatic Cathepsin D (Cat D) FRET assay; format: biochemical; details: read-out: IC50 IP (μM) CatD
Recombinant Cat D, sequence (P07339 65-412): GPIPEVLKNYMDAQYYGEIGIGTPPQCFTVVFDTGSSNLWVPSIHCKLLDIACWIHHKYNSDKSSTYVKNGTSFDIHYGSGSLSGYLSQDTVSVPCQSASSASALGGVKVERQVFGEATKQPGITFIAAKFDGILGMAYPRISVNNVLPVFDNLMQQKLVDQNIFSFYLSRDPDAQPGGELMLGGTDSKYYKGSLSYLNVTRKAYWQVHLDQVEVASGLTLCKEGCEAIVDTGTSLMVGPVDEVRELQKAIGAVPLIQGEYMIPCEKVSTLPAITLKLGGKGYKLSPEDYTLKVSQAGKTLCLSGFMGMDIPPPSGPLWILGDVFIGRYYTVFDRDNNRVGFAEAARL
Summary of the method: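 Fluorescence at 500 nm excitation and 580 nm emission reports cleavage of a quenched fluorophore–quencher peptide (20 nM) by CHO-expressed Cat D. Reactions ran one hour in 0.05 M citrate pH 3.5, 5 mM CHAPS, 10% DMSO final before a Tris stop raised pH to neutrality.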

human recombinant BACE1 = human recombinant BACE1 (Homo sapiens (Human), UniProt P56817); test: In vitro enzymatic BACE1 FRET assay; format: biochemical; details: read-out: IC50 IP (μM) BACE1 enzyme
human recombinant BACE1, sequence (P56817 46-501): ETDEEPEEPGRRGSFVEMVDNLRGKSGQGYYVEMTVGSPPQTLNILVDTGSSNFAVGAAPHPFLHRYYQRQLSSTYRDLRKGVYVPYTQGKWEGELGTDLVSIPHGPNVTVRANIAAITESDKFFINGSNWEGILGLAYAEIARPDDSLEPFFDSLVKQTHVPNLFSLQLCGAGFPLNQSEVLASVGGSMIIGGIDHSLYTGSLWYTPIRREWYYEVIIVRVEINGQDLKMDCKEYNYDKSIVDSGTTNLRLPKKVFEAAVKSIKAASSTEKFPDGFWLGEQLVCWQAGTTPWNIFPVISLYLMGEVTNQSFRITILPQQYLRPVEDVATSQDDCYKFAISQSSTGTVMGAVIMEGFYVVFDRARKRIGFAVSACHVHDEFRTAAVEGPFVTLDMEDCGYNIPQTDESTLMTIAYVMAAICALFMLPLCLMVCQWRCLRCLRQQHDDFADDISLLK
Summary of the method: (§1)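 Reactions were initiated by adding 50 nM of a peptide carrying fluorophore and quencher on opposite sides of the cleavage site and ran for one hour. Tris buffer then brought the pH to neutrality, ending the reaction, and fluorescence was measured (488 nm excitation, 590 nm emission).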

[1] = test system: Aβ40 in conditioned medium of cells stably expressing Amyloid Precursor Protein (APP); test: In vitro BACE-1 cell-based assay (Aβ40 sandwich ELISA); details: read-out: IC50 IP (μM) BACE1 cell
Summary of the method: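 Aβ40 in supernatants measured by time-resolved fluorescence sandwich ELISA, with pAb40 as capture and biotin-6E10 as detector antibody, each incubated at 4 °C.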

Aβ 40 in rat brain = test: In vivo inhibition of beta-secretase: Aβ40 reduction in rat brain; details: 10 mpk, after 4 h
Summary of the method: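 Rats were dosed by oral gavage at up to 100 mg/kg in 2% HPMC, 1% Tween80, pH 2.2, with vehicle-only controls. Supernatant Aβ40 was measured by ECL sandwich ELISA with biotinylated-4G8 capture and C-terminal Fab40 detection.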

human recombinant BACE2 = human recombinant BACE2 (Homo sapiens (Human), UniProt Q9Y5Z0); test: In vitro enzymatic BACE2 FRET assay; format: biochemical; details: read-out: IC50 IP (μM) BACE2 enzyme
human recombinant BACE2, sequence (Q9Y5Z0 63-518): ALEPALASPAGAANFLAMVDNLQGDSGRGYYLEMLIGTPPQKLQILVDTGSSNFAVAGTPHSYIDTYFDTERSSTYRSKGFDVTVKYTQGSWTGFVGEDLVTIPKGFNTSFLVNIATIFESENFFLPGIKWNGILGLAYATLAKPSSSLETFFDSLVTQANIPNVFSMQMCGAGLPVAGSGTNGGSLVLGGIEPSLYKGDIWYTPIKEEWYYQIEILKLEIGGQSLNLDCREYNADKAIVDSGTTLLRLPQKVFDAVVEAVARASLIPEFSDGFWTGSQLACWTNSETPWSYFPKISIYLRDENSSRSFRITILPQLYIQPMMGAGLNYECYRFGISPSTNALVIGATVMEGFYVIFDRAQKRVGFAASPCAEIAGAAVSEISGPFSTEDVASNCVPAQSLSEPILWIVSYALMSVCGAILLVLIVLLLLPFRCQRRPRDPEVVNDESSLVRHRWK
Summary of the method: as §1

Row | IC50 (Recombinant Cat D) [µM] | IC50 (human recombinant BACE1) [µM] | IC50 [1] [µM] | IC50 (human recombinant BACE2) [µM] | SMILES | % Aβ 40 reduction in rat CSF at 10 mpk (Aβ 40 in rat CSF) [%] | % Aβ 40 reduction in rat brain at 10 mpk (Aβ 40 in rat brain) [%]
1 | 995 | 0.00496 | 0.00446 | 0.207 | Cc1nc(COc2cnc3c(Nc4ccc(F)c([C@@]5(C)N=C(N)S[C@@]6(CF)C[C@H]65)c4)nccc3n2)no1 [Example 828, N-(3-((1S,5S,6S)-3-amino-1-(fluoromethyl)-5-methyl-2-thia-4-azabicyclo[4.1.0]hept-3-en-5-yl)-4-fluorophenyl)-2-((5-methyl-1,2,4-oxadiazol-3-yl)methoxy)pyrido[3,4-b]pyrazin-5-amine] | 24 | 10
2 | > 400 | 0.00299 | 0.00359 | 0.118 | COC[C@]12C[C@H]1[C@@](C)(c1cc(NC(=O)c3cnc(OCC(F)(F)F)cn3)ccc1F)N=C(N)S2 [Example 831, N-(3-((1S,5S,6S)-3-amino-1-(methoxymethyl)-5-methyl-2-thia-4-azabicyclo[4.1.0]hept-3-en-5-yl)-4-fluorophenyl)-5-(2,2,2-trifluoroethoxy)-2-pyrazinecarboxamide] | 49 | 16
3 | 318 | 0.000404 | 0.000489 | 0.0127 | C#CCOc1cnc(C(=O)Nc2ccc(F)c([C@@]3(C)N=C(N)S[C@@]4(COC)C[C@H]43)c2)cn1 [Example 834, N-(3-((1S,5S,6S)-3-amino-1-(methoxymethyl)-5-methyl-2-thia-4-azabicyclo[4.1.0]hept-3-en-5-yl)-4-fluorophenyl)-5-(2-propyn-1-yloxy)-2-pyrazinecarboxamide] | 83 | 83
4 | 598 | 0.00114 | 0.0216 | 0.0449 | C#CCOc1cnc2c(Nc3cc(F)c(F)c([C@@]4(CF)N=C(N)S[C@H]5C[C@H]54)c3)nccc2n1 [Example 841, N-(3-((1S,5S,6S)-3-amino-5-(fluoromethyl)-2-thia-4-azabicyclo[4.1.0]hept-3-en-5-yl)-4,5-difluorophenyl)-2-(2-propyn-1-yloxy)pyrido[3,4-b]pyrazin-5-amine] | 58 | 44
5 | > 400 | 0.00256 | 0.0217 | 0.119 | NC1=N[C@](CF)(c2cc(Nc3nccc4nc(OCc5ncco5)cnc34)cc(F)c2F)[C@@H]2C[C@@H]2S1 [Example 842, N-(3-((1S,5S,6S)-3-amino-5-(fluoromethyl)-2-thia-4-azabicyclo[4.1.0]hept-3-en-5-yl)-4,5-difluorophenyl)-2-(1,3-oxazol-2-ylmethoxy)pyrido[3,4-b]pyrazin-5-amine] | 51 | 25
6 | 432 | 0.00378 | 0.0493 | 0.115 | NC1=N[C@](CF)(c2cc(Nc3nccc4nc(OCc5cocn5)cnc34)cc(F)c2F)[C@@H]2C[C@@H]2S1 [Example 843, N-(3-((1S,5S,6S)-3-amino-5-(fluoromethyl)-2-thia-4-azabicyclo[4.1.0]hept-3-en-5-yl)-4,5-difluorophenyl)-2-(1,3-oxazol-4-ylmethoxy)pyrido[3,4-b]pyrazin-5-amine] | 51 | 16
7 | > 400 | 0.000649 | 0.0038 | 0.00714 | C#CCOc1cnc2c(Nc3cc(F)c(F)c([C@@]4(C)N=C(N)S[C@@]5(C(N)=O)C[C@H]54)c3)nccc2n1 [Example 911, (1S,5S,6S)-3-amino-5-(2,3-difluoro-5-((2-(2-propyn-1-yloxy)pyrido[3,4-b]pyrazin-5-yl)amino)phenyl)-5-methyl-2-thia-4-azabicyclo[4.1.0]hept-3-ene-1-carboxamide] | 21 | 20
8 | > 400 | 0.000426 | 0.00195 | 0.0101 | C#CCOc1cnc2c(Nc3cc(F)c(F)c([C@@]4(C)N=C(N)S[C@@]5(C(=O)NC)C[C@H]54)c3)nccc2n1 [Example 915, (1S,5S,6S)-3-amino-5-(2,3-difluoro-5-((2-(2-propyn-1-yloxy)pyrido[3,4-b]pyrazin-5-yl)amino)phenyl)-N,5-dimethyl-2-thia-4-azabicyclo[4.1.0]hept-3-ene-1-carboxamide] | 51 | 47
9 | 172 | 0.00198 | 0.0206 | 0.0627 | C#CCOc1cnc2c(Nc3cc(F)c(F)c([C@@]4(C)N=C(N)S[C@@]5(C#N)C[C@H]54)c3)ncnc2c1 [Example 921, (1S,5S,6S)-3-amino-5-(2,3-difluoro-5-((7-(2-propyn-1-yloxy)pyrido[3,2-d]pyrimidin-4-yl)amino)phenyl)-5-methyl-2-thia-4-azabicyclo[4.1.0]hept-3-ene-1-carbonitrile] | 70 | 64
10 | 17.8 | 0.000249 | 0.00138 | < 0.00203 | C#CCOc1cnc(C(=O)Nc2cc(F)c(F)c([C@@]3(C)N=C(N)S[C@@]4(C#N)C[C@H]43)c2)cn1 [Example 924, N-(3-((1S,5S,6S)-3-amino-1-cyano-5-methyl-2-thia-4-azabicyclo[4.1.0]hept-3-en-5-yl)-4,5-difluorophenyl)-5-(2-propyn-1-yloxy)-2-pyrazinecarboxamide] | 84 | 76
11 | 633 | 0.000902 | 0.0386 | 0.0551 | C#C[C@H](C)Oc1cnc2c(Nc3cc(F)c(F)c([C@@]4(C)N=C(N)S[C@@]5(C#N)C[C@H]54)c3)nccc2n1 [Example 931, (1S,5S,6S)-3-amino-5-(2,3-difluoro-5-((2-(((1S)-1-methyl-2-propyn-1-yl)oxy)pyrido[3,4-b]pyrazin-5-yl)amino)phenyl)-5-methyl-2-thia-4-azabicyclo[4.1.0]hept-3-ene-1-carbonitrile] | 8 | 3
12 | 780 | 0.00962 | 0.0129 | 0.2 | C#CCOc1cnc2c(Nc3ccc(F)c([C@@]4(CF)N=C(N)S[C@H]5C[C@H]54)c3)ncnc2c1 [Example 941, N-(3-((1S,5S,6S)-3-amino-5-(fluoromethyl)-2-thia-4-azabicyclo[4.1.0]hept-3-en-5-yl)-4-fluorophenyl)-7 (2-propyn-1-yloxy)pyrido[3,2-d]pyrimidin-4-amine] | 41 | 2
13 | 381 | 0.00105 | 0.00709 | 0.0661 | C#CCOc1cnc2c(Nc3cc(F)c(F)c([C@@]4(C)N=C(N)S[C@@]5(C(F)F)C[C@@H]45)c3)ncnc2c1 [Example 945, N-(3-((1S,5S,6S)-3-amino-1-(difluoromethyl)-5-methyl-2-thia-4-azabicyclo[4.1.0]hept-3-en-5-yl)-4,5-difluorophenyl)-7-(2-propyn-1-yloxy)pyrido[3,2-d]pyrimidin-4-amine] | 68 | 55
14 | > 400 | 0.000618 | 0.00287 | 0.0638 | C#C[C@H](C)Oc1cnc(C(=O)Nc2ccc(F)c([C@@]3(C)N=C(N)S[C@@]4(COC)C[C@H]43)c2)cn1 [Example 965, N-(3-((1S,5S,6S)-3-amino-1-(methoxymethyl)-5-methyl-2-thia-4-azabicyclo[4.1.0]hept-3-en-5-yl)-4-fluorophenyl)-5-(((1S)-1-methyl-2-propyn-1-yl)oxy)-2-pyrazinecarboxamide] | 33 | 20
15 | 735 | 0.000385 | 0.00182 | 0.0419 | C#C[C@H](C)Oc1cnc(C(=O)Nc2ccc(F)c([C@@]3(C)N=C(N)S[C@@]4(C(F)F)C[C@@H]34)c2)cn1 [Example 966, N-(3-((1S,5S,6S)-3-amino-1-(difluoromethyl)-5-methyl-2-thia-4-azabicyclo[4.1.0]hept-3-en-5-yl)-4-fluorophenyl)-5-(((1S)-1-methyl-2-propyn-1-yl)oxy)-2-pyrazinecarboxamide] | 67 | 68
